The values that follow come from patent EP2740727B1, “Quinazolinone analogues for use as anticonvulsant agents” (King Saud University, priority 2012, dated 2014).

As usually defined, the LD50 is the dose at which mortality reaches 50%. The low end stands for a more toxic substance, the high end for a less toxic substance. One may read the ED50 as the dose that gives a 50% effect, or the effect in half of the subjects. High values mean a need for a large dose, low ones an effect at a small dose.

Like-named read-outs stand apart in the source and are kept apart here.

A short description of data set [1]: in vivo. Conditions: mouse, ip.
Method: (§1) The acute toxicity detenninatioii (LD50) for compounds of formula 1 was performed. Compounds were given intraperitoneally (i.p.) in doses ranging from 0.1-5 mmol/kg. […] All behavioral changes and death during the observation periods were recorded. […] The protective index (PI) and therapeutic index (TI) of each compound were calculated.
(§2) Initially the approximate LD50 of each test compound was determined. Albino Swiss mice (25 g body weight) were then divided into 4 groups (6 mice each). […] The animals were then observed closely for 4 hours and then occasionally for 72 hours. The percentage of death in each group was then calculated.
In a further data set the test system is motor performance. In words: Minimal neurotoxicity (chimney test), motor performance. The settings on record: Protective index = TD50/ED50.
The subject of data set [2] is Albino Swiss mice. In words: Acute toxicity determination (LD50). Conditions: Therapeutic index = LD50/ED50.
Method: as §1, §2
Data set [3] has as its system Pentylenetetrazole (PTZ)-induced convulsion. In words: Pentylenetetrazole (PTZ) seizure threshold test. Type of data set: in vivo, Swiss albino mice. Conditions: for ED50: Mus musculus, ip, median effective dose, mice, log-probit method; for % Protection: PTZ 100 mg/kg i.p. 30 min later, 4 animals; for protection against PTZ-induced seizures: dose not given (tested 25, 50, 100 and 200 mg/kg i.p.). The method, then: Adult male Swiss […] mice (22-28 g), approximately 10-week old, were used to conduct the anticonvulsant evaluation. They were housed in cages and kept at a temperature of 20 ± 2°C and a relative humidity of 55 ± 5% with a light-dark cycle of 12 h and fed with standard diet and water ad libitum. […] A control group of mice was included and received intraperitoneal (i.p.) injections of the test compounds' vehicle. […] Picrotoxin (pic) was freshly dissolved in 1 ml 0.1N warmed HCl and the final volume was made up with 0.9% NaCl.
A single 5 seconds episode of clonic spasms was taken as a threshold seizure.
In each of the chemical and the electrical methods described above, Swiss albino mice were divided into 4 groups (N = 4 animals).

Data set [4] in a line: in vivo. Conditions: mouse, ip. The source holds these as a separate data set.
Method: (§3) Median effective (ED50), and median sedative (TD50) were calculated.
For data set [5], the system named is Albino Swiss mice. Conditions: mouse, in vivo, 72 h.
Method: as §1, §2

Method for motor performance: as §3

In the data set “in vivo [1]” (Albino Swiss), `COc1cc2nc(SCC(=O)NN)n(Cc3ccccc3)c(=O)c2cc1OC` [Compound 70, 2-(3-Benzyl-6,7-dimethoxy-4-oxo-3,4-dihydro-quinazolin-2-yl-thio)acetohydrazide] returned an LD50 at 72 h of 360 mg/kg. This molecule displayed a PI with motor performance of 4.67. Moreover, in the data set with Albino Swiss mice [2], the TI was determined as 11.25. In data set [3], the ED50 came out at 32 mg/kg and the “protection against PTZ-induced seizures” value is 100%. In addition, the “% Protection” value in data set [3] (dose 50 mg/Kg i.p. [sic]) is 100%. The same molecule registered a TD50 in the data set “in vivo [4]” of 149 mg/kg.

`CCC(=O)NNC(=O)CSc1nc2ccc(Cl)cc2c(=O)n1-c1ccccc1` [Compound 89, N'-[2-(6-Chloro-4-oxo-3-phenyl-3,4-dihydro-quinazolin-2yl-thio)acetyl]propionohydrazide] came in with an LD50 at 72 h in “in vivo [1]” (Albino Swiss) of 290 mg/kg. Further, in the data set on motor performance, the PI is reported as 8.5. The same molecule displayed a TI in the data set with Albino Swiss mice [2] of 24.6. In addition, in data set [3], the 50% effective dose (ED50) was 11.8 mg/kg and the “protection against PTZ-induced seizures” value was 100%. Moreover, the “% Protection” value in data set [3] (dose 50 mg/Kg i.p. [sic]) is reported as 100%. Further, the TD50 in the data set “in vivo [4]” is 100 mg/kg.

`CC(=O)NNC(=O)CSc1nc2ccc(Cl)cc2c(=O)n1Cc1ccccc1` [Compound 105, N'-Acetyl-2-(3-benzyl-6-chloro-4-oxo-3,4-dihydro-quinazolin-2-yl-thio)acetohydrazide] showed an LD50 at 72 h in the data set “in vivo [1]” (Albino Swiss) of 240 mg/kg. In the data set on motor performance, the PI came to 8.7. In the data set on Albino Swiss mice [2], this molecule came in with a TI of 9.7. Besides, in data set [3], the median effective dose (ED50) was 24.8 mg/kg and the “protection against PTZ-induced seizures” value came out at 100%. The “% Protection” value in data set [3] (dose 150 mg/Kg i.p.) is 100%. Moreover, the TD50 in “in vivo [4]” is 215 mg/kg.

Molecule `CCC(=O)NNC(=O)CSc1nc2cc(OC)c(OC)cc2c(=O)n1Cc1ccccc1` [Compound 110, N'-(2-(3-Benzyl-6,7-dimethoxy-4-oxo-3,4-dihydro-quinazolin-2-yl-thio)acetyl)propionohydrazide] displayed an LD50 at 72 h in “in vivo [1]” (Albino Swiss) of 168 mg/kg. Further, the PI in the data set on motor performance turned out to be 4.1. In the data set with Albino Swiss mice [2], this molecule came in with a TI of 5.1. In data set [3], it took a dose of 32.7 mg/kg to reach the 50% effect level (ED50) and the “protection against PTZ-induced seizures” value is recorded as 100%. The “% Protection” value in data set [3] (dose 150 mg/Kg i.p.) is on record as 100%. Also, the TD50 in the data set “in vivo [4]” was found to be 134 mg/kg.

In the data set “in vivo [1]” (Albino Swiss), `O=C(CCc1ccccc1)NNC(=O)CSc1nc2ccc(Cl)cc2c(=O)n1Cc1ccccc1` [Compound 115, N'-(2-(3-Benzyl-6-chloro-4-oxo-3,4-dihydro-quinazolin-2-yl-thio)acetyl)-3-phenylpropanehydrazide] registered a 50% lethal dose (LD50) at 72 h of 290 mg/kg. Also, in the data set on motor performance, the PI stood at 4.6. The same molecule yielded a TI with Albino Swiss mice [2] of 9.8. Moreover, in data set [3], the 50% effective dose (ED50) came to 29.5 mg/kg and the “protection against PTZ-induced seizures” value stood at 100%. The “% Protection” value in data set [3] (dose 150 mg/Kg i.p.) came to 100%. Besides, in “in vivo [4]”, the TD50 came to 136 mg/kg.

In “in vivo [1]”, `CCCC(CCC)C(=O)[O-].[Na+]` [Sodium Valproate, Sodium valproate, reference compound] yielded a median lethal dose (LD50) at 72 h of 985 mg/kg. In the data set with Albino Swiss mice [5], this molecule came in with a TI of 5.2. The same molecule showed an ED50 in data set [3] of 189 mg/kg. The “% Protection” value in data set [3] (dose 50 mg/Kg i.p. [sic]) amounted to 100%. This molecule also had a TD50 in “in vivo [4]” of 470 mg/kg.
